According to patent US20260283983A1, “PHARMACEUTICAL COMPOSITIONS FOR WOUND CARE” (BIO PROTECTANT TECHNOLOGIES, INC., priority 2023, published 2026):
Converted amounts (≈) assume the structure as drawn. Where a SMILES comes first, the peptide text is derived from it. Bridges are numbered along the chain shown (N, C = ends). [ ]: non-standard residue; d: D form. The star is where a group is joined. Ileψ(thiazoline)Cys = CC[C@H](C)[C@H](N)C1=N[C@H](C(=O)*)CS1; dOrn = NCCC[C@@H](N)C(=O)O

Tests used:
[1] = tested on: S. mutans; test: S. mutans quantitative biofilm reduction assay; type: cell-based; details: same treatment concentration; FIG. 6A-6C
Method: • Day 1: O/N culture of S. mutans • Day 2: Dilute O/N culture 1:9 in BHI • Place discs in 2 mL diluted culture and incubate 24 h • Day 3 Transfer discs to 2 mL BMGS (culture in BMGS for 1-3 days) • Day 4 1-Day: Transfer discs to 2 mL sterilants for desired incubation time • Transfer discs back to 2 mL BMGS for 24 h • 2-Day: Transfer discs to 2 mL BMGS and incubate for another 24 h • Day 5 1-Day: Sonicate disc and plate 100 μL of different dilutions • 2-Day: Transfer discs to 2 mL sterilants for desired incubation time • Transfer discs back to 2 mL BMGS for 24 h • Day 6 1-Day: Count plates • 2-Day: Sonicate disc and plate 100 μL of different dilutions • Day 7 Count plates

[2] = tested on: S. aureus ATCC 6538; test: MIC and MBC determination, S. aureus ATCC 6538; type: cell-based; details: Staphylococcus aureus
Excerpt: (§1) The MIC and MBC of Formulation B was initially determined using a panel of S. aureus strains (Table 1) including laboratory S. aureus ATCC 6538, bioluminescent S. aureus strain Newman, bioluminescent CA-MRSA strain MW2, and a MRSA clinical isolate.

[3] = tested on: Bioluminescent S. aureus strain Newman; test: MIC and MBC determination, bioluminescent S. aureus strain Newman; type: cell-based; details: Staphylococcus aureus
Excerpt: as §1

[4] = tested on: Bioluminescent CA-MRSA strain MW2; test: MIC and MBC determination, bioluminescent CA-MRSA strain MW2; type: cell-based, S. aureus; details: Staphylococcus aureus
Excerpt: as §1

[5] = tested on: MRSA clinical isolate; test: MIC and MBC determination, MRSA clinical isolate; type: cell-based, S. aureus; details: Staphylococcus aureus
Excerpt: as §1

[6] = tested on: bioluminescent MRSA (CA-MRSA); test: Murine model of wound healing (biopsy punch) infected with bioluminescent MRSA; type: in vivo; details: mice infected with 1×10^5 CFU bioluminescent MRSA; 20 μL topically three times daily; two week period; FIG. 1A
Method: An exemplary formulation (Formulation A) was tested in the murine model of wound healing (Dunn, Louise, et al. “Murine model of wound healing.” Journal of Visualized Experiments. 75 (2013): e50265-e50265).
• Biopsy punch model performed • Infected with 1×10^5 CFUs bioluminescent MRSA
Wound was imaged then treated with Formulation A
The animals were treated topically with 20 μL of Formulation A, bacitracin, or vehicle three times daily and imaged
The animals were imaged, weight, and their wound was measured daily
The animals were sacrificed and the bacterial burdens were checked in the wound, the liver, the spleen, and the blood.
Tracking of infection and wound healing in mice infected with 1×10^5 CFU bioluminescent MRSA and treated with 20 μL Formulation A, bacitracin (positive control), or vehicle control (N=5 for each treatment group). FIG. 1A: average radiance in the wound bed detected over a two week period. […] Statistical analysis was conducted in GraphPad Prism 6 using a two-way ANOVA test: ***p<0.001; ****p<0.0001. FIG. 1B: box and whisker plots of the wound area over time, beginning on day 4 after the removal of the surgical wound dressing. […] FIG. 1C: plot of the change in weight through the duration of infection and treatment.

[7] = read-out: Minimum Bactericidal Concentration
[8] = read-out: Minimum Inhibitory Concentration

Compound | biofilm accumulation after treatment [1] | MBC ([2]; ATCC6538, read-out: Minimum Bactericidal Concentration) | MIC ([2]; ATCC6538, read-out: Minimum Inhibitory Concentration) | MBC [3, 7] | MIC [3, 8] | MBC [4, 7] | MIC [4, 8] | MBC [5, 7] | MIC [5, 8] | bacterial burden, average radiance in the wound bed [6]
C12-C14 alkyl(ethylbenzyl)dimethylammonium chloride | approximate equivalence | – | – | – | – | – | – | – | – | –
CC[C@H](C)[C@H](N)C1=N[C@H](C(=O)N[C@@H](CC(C)C)C(=O)N[C@H](CCC(=O)O)C(=O)N[C@H](C(=O)N[C@H]2CCCCNC(=O)[C@H](CC(N)=O)NC(=O)[C@@H](CC(=O)O)NC(=O)[C@H](Cc3cnc[nH]3)NC(=O)[C@@H](Cc3ccccc3)NC(=O)[C@H]([C@@H](C)CC)NC(=O)[C@@H](CCCN)NC2=O)[C@@H](C)CC)CS1 [Bacitracin] ({Ileψ(thiazoline)Cys}-L[dE]IK[dOrn]I[dF]H[dD]N; lactam 4-C) | – | 67 mg/L (≈ 47.1 µM) | 67 mg/L (≈ 47.1 µM) | 333 mg/L (≈ 234 µM) | 67 mg/L (≈ 47.1 µM) | 333 mg/L (≈ 234 µM) | 67 mg/L (≈ 47.1 µM) | 67 mg/L (≈ 47.1 µM) | 67 mg/L (≈ 47.1 µM) | completely cleared infection within the first day
CCCCCCCCCCCCC[N+](C)(C)Cc1ccccc1 [BAK, benzalkonium chloride] | approximate equivalence | – | – | – | – | – | – | – | – | –
